Source: US20040024024A1, “Aromatic sulfone hydroxamates and their use as protease inhibitors” (priority 2001, published 2004)
pIC50, pKi: −log10 of the molar value.

Columns and labels:
Human recombinant MMP-1 = molecular target: T1, Human recombinant MMP-1 (Homo sapiens, UniProt P03956); experiment: In vitro MMP inhibition, IC50 determination (fluorogenic substrate I); format: biochemical; details: value outside parentheses
T1 construct: made in house; host or cells: MMP-1-transfected HT-1080 cells (spent media)
T1 sequence (P03956 100-469): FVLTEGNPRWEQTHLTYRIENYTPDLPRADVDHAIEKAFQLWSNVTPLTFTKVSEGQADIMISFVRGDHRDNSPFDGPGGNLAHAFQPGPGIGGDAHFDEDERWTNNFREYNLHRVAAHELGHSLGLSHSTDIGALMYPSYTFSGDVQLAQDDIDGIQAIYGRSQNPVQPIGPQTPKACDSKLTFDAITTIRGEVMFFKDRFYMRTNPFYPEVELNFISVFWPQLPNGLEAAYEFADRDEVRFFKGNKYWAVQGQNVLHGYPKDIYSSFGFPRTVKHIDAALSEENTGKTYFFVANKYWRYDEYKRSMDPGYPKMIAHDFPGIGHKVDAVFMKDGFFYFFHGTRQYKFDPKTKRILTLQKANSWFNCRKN
Summary of the method: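 Inhibitor dilutions were made in 100 mM Tris-HCl/100 mM NaCl/10 mM CaCl2 buffer, pH 7.5, and incubated at room temperature with activated proenzyme (from transfected HT-1080 media; APMA or trypsin) and 4 μM quenched methoxycoumarin peptide substrate. Loss of 415 nm fluorescence (328 nm excitation) against concentration gave IC50.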

Human recombinant MMP-2 = molecular target: T2, Human recombinant MMP-2 (Homo sapiens, UniProt P08253); experiment: In vitro MMP inhibition, Ki determination (fluorogenic substrate II); format: biochemical; details: value in parentheses
T2 construct: made in house; host or cells: MMP-2-transfected p2AHT2 cells
T2 sequence (P08253 110-660): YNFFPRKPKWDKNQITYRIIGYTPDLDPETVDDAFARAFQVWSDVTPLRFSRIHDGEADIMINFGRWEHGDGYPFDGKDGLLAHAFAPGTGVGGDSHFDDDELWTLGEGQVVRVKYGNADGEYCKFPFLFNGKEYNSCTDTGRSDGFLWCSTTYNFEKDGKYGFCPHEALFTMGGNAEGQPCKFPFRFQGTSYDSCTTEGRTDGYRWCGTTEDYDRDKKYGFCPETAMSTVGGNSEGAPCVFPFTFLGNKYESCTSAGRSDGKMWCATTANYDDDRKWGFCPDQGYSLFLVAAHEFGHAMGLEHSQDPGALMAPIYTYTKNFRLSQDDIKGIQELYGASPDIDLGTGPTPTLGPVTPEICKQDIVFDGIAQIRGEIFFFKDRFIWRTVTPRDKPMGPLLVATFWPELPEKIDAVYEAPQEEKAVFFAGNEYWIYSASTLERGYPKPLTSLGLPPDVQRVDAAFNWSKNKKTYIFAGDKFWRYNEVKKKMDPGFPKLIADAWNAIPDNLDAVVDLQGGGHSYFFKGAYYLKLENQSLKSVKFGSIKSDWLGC
Protocol: Several hydroxamates and salts thereof were analyzed in in vitro assays to determine their ability to inhibit the MMP cleavage of peptide substrates. Inhibition (Ki) and IC50 constants were calculated from the assayed hydroxamate-MMP interactions.
Human recombinant MMP-1, MMP-2, MMP-9, MMP-13, and MMP-14 were used in this assay. All enzymes were prepared in Assignee's laboratories following usual laboratory procedures. Protocols for the preparation and use of these enzymes are available in the scientific literature. See, e.g., Enzyme Nomenclature (Academic Press, San Diego, Calif., 1992) (and the citations therein). See also, Frije et al., J. Biol. Chem., 26(24), 16766-73 (1994).
The MMP-2 proenzyme was purified by gelatin Sepharose chromatography from MMP-2-transfected p2AHT2 cells provided by Dr. Gregory Goldberg of Washington University (St. Louis, Mo.).
All MMPs were activated using 4-aminophenylmercuric acetate (“APMA”, Sigma Chemical, St. Louis, Mo.) or trypsin. MMP-9 also was activated using human recombinant MMP-3 (purified in Assignee's laboratory following standard cloning and purification techniques).
Two fluorogenic, methoxycoumarin-containing polypeptide substrates were used in the MMP inhibition assays:
MCA-ArgProLeuGlyLeuDpaAlaArgGluArgNH2 (II)
Here, “Dpa” is 3-(2,4-dinitrophenyl)-L-2,3-diaminopropionyl group, and “MCA” is 7-methoxycoumarin-4-yl acetyl. Substrate (I) was purchased from Baychem (Redwood City, Calif.), and substrate II was prepared Assignee's laboratory. Substrate I was used in the IC50 determination assays, while substrate II was used in the Ki determination assays. In the absence of MMP inhibitory activity, either substrate is cleaved at the Gly-Leu peptide bond. This cleavage separates the highly fluorogenic peptide from the 2,4-dinitrophenyl quencher, thus resulting in increase of fluorescent intensity.
The stock solutions of the assayed hydroxamates (or salts thereof) were prepared in 1% dimethyl sulfoxide (DMSO). These stock solutions were diluted in Buffer A (100 mM Tris-HCl, 100 mM NaCl, 10 mM CaCl2, 0.05% polyoxyethylene 23 lauryl ether, pH 7.5) to obtain solutions with different hydroxamate concentrations, i.e., assay solutions with different concentrations of the assayed MMP inhibitory compound. The experiment controls contained the same amount of Buffer A/DMSO as the assayed sample, but contained no hydroxamate (or salt thereof).
The assays from which the Ki determinations were made were performed as follows. The assayed hydroxamate samples were incubated in separate wells of untreated white polystyrene plates (Nunc Nalgene International, Rochester, N.Y.), and analyzed on a Tecan SpectraFlour Plus plate reader. The excitation wavelength was 330 nm, and the emission wavelength—420 nm. All samples (assayed hydroxamates and controls) were incubated in separate plate wells at room temperature for 1 hr in the presence of 4 μM of MMP substrate (II). In the absence of MMP inhibitory activity, substrate II was cleaved at the Gly-Leu bond resulting in an increase of relative fluorescence. Inhibition was observed as a reduced rate of this increase in relative fluorescence. The various hydroxamates were analyzed using a single low enzyme concentration with a single substrate concentration fixed at or below the Km. This protocol is a modification of method by Knight et al., FEBS Lett., 296(3), 263-266 (1992). Apparent inhibitory constants were determined by non-linear regression of reaction velocity as a function of inhibitor and enzyme concentration using Morrison's equation, as described by Kuzmic, Anal. Biochem. 286, 45-50 (2000). […] Since the substrate concentration was chosen to be at or below the Km, the apparent Ki's from this analysis were reported as Ki's without correction for the influence of substrate.

pIC50 (Human recombinant MMP-1)	pKi (Human recombinant MMP-2)	Compound
< 5.00	7.29	O=C(NO)C1(S(=O)(=O)c2ccc(OCCCc3cncc(-c4ccccc4)c3)cc2)CCOCC1 [Example 524]
< 5.00	6.90	O=C(NO)C1(S(=O)(=O)c2ccc(OCCCc3cc(-c4ccc(F)cc4F)cs3)cc2)CCOCC1 [Example 587]
< 5.00	6.23	O=C(NO)C1(S(=O)(=O)c2ccc(OCCCc3cccc(-c4cccs4)c3)cc2)CCOCC1 [Example 595]
< 5.00	7.95	O=C(Cc1csc2ccccc12)NCCOc1ccc(S(=O)(=O)C2(C(=O)NO)CCOCC2)cc1 [Example 596]
< 5.00	9.42	O=C(NCCOc1ccc(S(=O)(=O)C2(C(=O)NO)CCOCC2)cc1)c1cc2ccccc2[nH]1 [Example 599]
< 5.00	6.14	O=C(NO)C1(S(=O)(=O)c2ccc(OCCCc3cc(-c4ccc(OC(F)(F)F)cc4)cs3)cc2)CCOCC1 [Example 608]
< 5.00	6.21	N#Cc1ccc(-c2cccc(CCCOc3ccc(S(=O)(=O)C4(C(=O)NO)CCOCC4)cc3)c2)cc1 [Example 624]
< 5.00	6.19	O=C(NO)C1(S(=O)(=O)c2ccc(OCCCc3cccc(-c4ccc([N+](=O)[O-])cc4)c3)cc2)CCOCC1 [Example 626]
< 5.00	5.56	O=C(NO)C1(S(=O)(=O)c2ccc(OCCCc3cccc(-c4ccc5c(c4)OCO5)c3)cc2)CCOCC1 [Example 628]
< 5.00	5.68	O=C(NO)C1(S(=O)(=O)c2ccc(OCCCc3cccc(-c4ccc(F)cc4F)c3)cc2)CCOCC1 [Example 630]
< 5.00	6.55	O=C(NO)C1(S(=O)(=O)c2ccc(OCCCc3cccc(-c4ccsc4)c3)cc2)CCOCC1 [Example 632]
< 5.00	6.30	O=C(NO)C1(S(=O)(=O)c2ccc(OCCCc3cccc(-c4ccoc4)c3)cc2)CCOCC1 [Example 637]
